# Measured values published in patent publication US11622964B2, “Method for destroying cellular mechanical homeostasis and promoting regeneration and repair of tissues and organs, and use thereof” (INSTITUTE OF ZOOLOGY, CHINESE ACADEMY OF SCIENCES, priority 2018, dated 2023).
# Legend:
# [1] = test system: mouse adult liver, lung, and heart-derived primary mesenchymal cells (priMCs); test: TGF-β1-induced transformation of mouse primary mesenchymal cells into myofibroblasts; format: cell-based; settings: 20 μM, 3 ng/ml TGF-β1, 7 days
# Source text: In this example, cell models for in vitro fibrosis are respectively built to activate mouse hepatic stellate Cells (mHSCs, FIG. 13(B)), mouse embryonic fibroblasts (MEFs FIG. 13(C)), mouse adult liver, lung, and heart-derived primary mesenchymal cells (priMCs, FIG. 13(D)), and human hepatic stellate cells (hLX-2, FIG. 13(E)) into myofibroblasts through the induction of TGF-β1. The specific experimental procedure is as shown in FIG. 9A: a medium containing 10% serum is used for the initial cell culture; after 24 hours the medium is replaced with low serum medium (or pre-starvation treatment for 16 hours) while adding 3 ng/ml TGF-β1 with DMSO or Bleb (20 μM); after 7 days the expression of myofibroblast activation marker protein (Acta2), collagen (Col1a1, Col1a2, Col3a1, and Col1a2), and matrix metalloproteinases and inhibitors (collagenases: MmP8, and MmP13; gelatinases: MmP2, and MmP9; a metalloproteinase inhibitor: Timp1/2/3) are identified.
# [2] = test system: homologous recombination repair; test: Homologous recombination repair reporter plasmid system (flow cytometry, GFP/mRuby); format: cell-based; settings: treated for 4 h at 18 h, 24 h, 36 h after medium change; flow analysis 72 h after transfection
# Protocol: First, a reporter plasmid system for homologous recombination repair is constructed, and the cells emit green fluorescence only when the foreign homologous sequence and the homologous fragment of the cell are homologously recombined. Meanwhile, mRuby red fluorescent protein is transferred to label the efficiency of transfected cells, and the efficiency of homologous recombination is determined by flow cytometry analysis of the ratio of green fluorescent protein to mRuby. 18 h after changing the medium for the transfection, the control group is treated with DMSO for 4 h; and 18 h, 24 h, and 36 h after changing the medium for the transfection, the experimental group is treated with (−)-blebbistatin for 4 h, and the HDR efficiency is analyzed by flow analysis 72 h after transfection. […] The experimental procedure is as follows: after changing the medium for the transfection, the control group is treated with DMSO; and after changing the medium for the transfection, the experimental group is treated with 250 nM RTA408; then the HDR efficiency is analyzed by flow analysis 72 h after transfection.
compound,measurement,setting,value
Cc1ccc2c(c1)C(=O)[C@]1(O)CCN(c3ccccc3)C1=N2 [(−)-blebbistatin],TGF-β1 induced transformation into myofibroblasts and extracellular matrix synthesis,[1],significantly inhibits
same,efficiency of homologous recombination (HDR efficiency),[2],significantly increases
